Some results are limits rather than exact numbers.

These results are taken from ChEMBL document CHEMBL1142043, “Potent and selective [2-imidazol-1-yl-2-(6-alkoxy-naphthalen-2-yl)-1-methyl-ethyl]-dimethyl-amines as retinoic acid metabolic blocking agents (RAMBAs)” (Bioorg Med Chem Lett, 2005).

Assay [1] has as its target T1, Cytochrome P450 26A1 (Homo sapiens, UniProt O43174).
T1 sequence (O43174 whole entry): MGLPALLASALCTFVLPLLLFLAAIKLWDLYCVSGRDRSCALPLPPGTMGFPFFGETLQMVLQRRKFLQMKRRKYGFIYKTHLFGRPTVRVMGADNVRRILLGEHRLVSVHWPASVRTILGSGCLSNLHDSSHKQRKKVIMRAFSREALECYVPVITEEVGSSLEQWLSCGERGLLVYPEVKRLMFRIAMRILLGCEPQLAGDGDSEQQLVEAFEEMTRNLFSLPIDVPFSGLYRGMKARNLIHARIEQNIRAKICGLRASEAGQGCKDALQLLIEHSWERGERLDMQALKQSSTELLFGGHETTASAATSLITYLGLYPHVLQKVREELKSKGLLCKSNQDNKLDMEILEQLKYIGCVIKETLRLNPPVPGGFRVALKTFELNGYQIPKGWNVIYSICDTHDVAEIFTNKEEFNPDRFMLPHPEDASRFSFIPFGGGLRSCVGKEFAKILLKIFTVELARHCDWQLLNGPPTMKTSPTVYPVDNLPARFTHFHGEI
In words: Potency towards cytochrome P 450 26 enzyme activity.

Assay [2] relates to T47D. In words: Potency towards T47D cell. Type of assay: functional, cell-based, Rattus norvegicus. To be noted: Homo sapiens.
The nature of assay [3]: Potency towards AT 6.1 cell; Inactive at 250 nM. It is filed as functional, Rattus norvegicus.
Assay [4] relates to Rattus norvegicus. Nature of the assay: Potency (30 mg/kg, bid) was determined towards AT 6.1 cell. It is filed as organism-based.
The subject of assay [5] is T47D. In words: Potency towards T47D cell; Inactive at 1 uM. It is filed as functional.
The nature of assay [6]: Potency towards AT 6.1 cell. Type of assay: functional, Rattus norvegicus.

With `COC(=O)COc1ccc(COc2ccc3cc(C(C(C)N(C)C)n4ccnc4)ccc3c2)cc1` (stereo in doubt; syn), the IC50 (in general, the concentration at which inhibition is half-maximal) in assay [1] worked out at 19 nM.

As to `CC(C(c1ccc2cc(OCc3cccc(C(=O)O)c3)ccc2c1)n1ccnc1)N(C)C` (stereo in doubt; syn), inhibition in assay [1] was half-maximal at 3.5 nM (IC50).

Regarding `CC(C(c1ccc2cc(OCc3ccc(C#N)cc3)ccc2c1)n1ccnc1)N(C)C` (stereo in doubt; syn), it took 6 nM to reach half-maximal inhibition in assay [1] (IC50).

`CC(C(c1ccc2cc(OCc3ccc(OC(C)(C)C)cc3)ccc2c1)n1ccnc1)N(C)C` (stereo in doubt; syn) came in with an IC50 in assay [1] of 34 nM.

For the molecule `CC(C(c1ccc2cc(OCc3ccc(C#N)cc3)ccc2c1)n1ccnc1)N(C)C` (stereo in doubt; anti), in assay [1], the IC50 was 71 nM.

Regarding `CC(C(c1ccc2cc(OCC(C)(C)C(N)=O)ccc2c1)n1ccnc1)N(C)C` (stereo unspecified), the IC50 in assay [1] was 47 nM; in assay [2], 250 nM; in assay [3] it was “Inactive at 250 nM”.

`CC(C(c1ccc2cc(OCc3ccc(OC(C)(C)C)cc3)ccc2c1)n1ccnc1)N(C)C` (stereo in doubt; anti) came in with an IC50 in assay [1] of 86 nM.

Take `Clc1cccc(C(c2ccc3[nH]cnc3c2)n2ccnc2)c1` (stereo unspecified): the inhibition (commonly how much of the control response was suppressed) in assay [4] came to 90%.

In assay [1], `COC(=O)c1cccc(COc2ccc3cc(C(C(C)N(C)C)n4ccnc4)ccc3c2)c1` (stereo in doubt; anti) registered an IC50 of 18 nM.

On to `CC(C(c1ccc2cc(OCc3cccc(C(N)=O)c3)ccc2c1)n1ccnc1)N(C)C` (stereo unspecified), for which the IC50 result in assay [3] and in assay [5] was “Inactive at 1 uM” each time.

Regarding `CC(C(c1ccc2cc(OCC(C)(C)C(=O)O)ccc2c1)n1ccnc1)N(C)C` (stereo unspecified), the IC50 was 125 nM in assay [2] and 300 nM in assay [6].

In the case of `CC(C(c1ccc2cc(OCc3cccc(C(=O)N(C)C)c3)ccc2c1)n1ccnc1)N(C)C` (stereo unspecified), the results for the IC50 in assay [1] and in assay [5] were 14.4 nM and “Inactive at 1 uM”, respectively.

Regarding `CC(C(c1ccc2cc(OCc3ccc(OCC(=O)O)cc3)ccc2c1)n1ccnc1)N(C)C` (stereo unspecified), the midpoint of inhibition in assay [1], the IC50, lay at 8 nM.

For the molecule `CC(C(c1ccc2cc(OCc3cccc(C(=O)O)c3)ccc2c1)n1ccnc1)N(C)C` (stereo in doubt; anti), the IC50 in assay [1] came out at 6.3 nM.

Turning to `COC(=O)c1cccc(COc2ccc3cc(C(C(C)N(C)C)n4ccnc4)ccc3c2)c1` (stereo in doubt; syn), the IC50 in assay [1] stood at 7 nM.

`CC(C(c1ccc2cc(OCc3ccc(CC(=O)O)cc3)ccc2c1)n1ccnc1)N(C)C` (stereo unspecified) returned an IC50 in assay [1] of 25 nM.

On to `COC(=O)c1ccc(COc2ccc3cc(C(C(C)N(C)C)n4ccnc4)ccc3c2)cc1` (stereo in doubt; syn), for which it took 16 nM to reach half-maximal inhibition in assay [1] (IC50).

In assay [1], `COC(=O)c1ccc(COc2ccc3cc(C(C(C)N(C)C)n4ccnc4)ccc3c2)cc1` (stereo in doubt; anti) gave an IC50 of 85 nM.

Take `CC(C(c1ccc2cc(OCC(=O)O)ccc2c1)n1ccnc1)N(C)C` (stereo unspecified): it took 335 nM to reach half-maximal inhibition in assay [1] (IC50).

Turning to `CNC(=O)c1cccc(COc2ccc3cc(C(C(C)N(C)C)n4ccnc4)ccc3c2)c1` (stereo unspecified), the IC50 was 37 nM in assay [1], 250 nM in assay [6] and “Inactive at 1 uM” in assay [5].

`CC(C(c1ccc2cc(OCC(C)(C)C(=O)N(C)C)ccc2c1)n1ccnc1)N(C)C` (stereo unspecified): in assay [6], the 50% inhibitory concentration (IC50) came to 250 nM.

With `COC(=O)COc1ccc(COc2ccc3cc(C(C(C)N(C)C)n4ccnc4)ccc3c2)cc1` (stereo in doubt; anti), inhibition in assay [1] was half-maximal at 153 nM (IC50).

Regarding `CC(C(c1ccc2cc(OCc3ccc(C(=O)O)cc3)ccc2c1)n1ccnc1)N(C)C` (stereo in doubt; anti), the IC50 in assay [1] amounted to 12 nM.

For the molecule `CNC(=O)C(C)(C)COc1ccc2cc(C(C(C)N(C)C)n3ccnc3)ccc2c1` (stereo unspecified), the IC50 was 54 nM in assay [1], “Inactive at 1 uM” in assay [3] and “Inactive at 1 uM” in assay [5].

`CC(C(c1ccc2cc(OCc3ccc(C(=O)O)cc3)ccc2c1)n1ccnc1)N(C)C` (stereo in doubt; syn): the IC50 in assay [1] is 3.3 nM; in assay [2] it was < 100 nM; in assay [6], < 100 nM.
